Consider 15 compounds from patent publication US12391679B2, “Benzamide-substituted bicyclic imidazo- and pyrazolo-fused -pyridine, -pyrimide, and -pyridazine compounds for treatment of inflammatory diseases” (ONCO3R Therapeutics BV, priority 2019, dated 2025).

One experiment deals with T1, SIK2 (Homo sapiens, UniProt Q9H0K1).
T1 construct: purchased ThermoFisher Scientific PV4792
The experiment is described as follows: ADP-Glo kinase assay, SIK2. The experiment is classed as biochemical. Put shortly: (§1)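 Kinase reactions ran 120 min at room temperature after ATP addition to enzyme-substrate mix. Remaining ATP was depleted (40 min) and ADP converted to ATP for luciferase detection (30 min), signal rising with activity. Final 1% DMSO and 10 μM staurosporine served as negative and positive controls.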

Another experiment has as its target T2, SIK3 (Homo sapiens, UniProt Q9Y2K2).
T2 construct: purchased SignalChem S12-11G-100
The experiment is described as follows: ADP-Glo kinase assay, SIK3. The experiment is classed as biochemical. In a few lines:
as §1
(ADP-Glo first removes unused ATP, then detects ADP through luciferase.)

Experiment [1] deals with LPS-induced TNFα in monocytes. The experiment is described as follows: Monocytes assay: LPS-triggered TNFα (ELISA). The experiment is classed as cell-based, human. To be noted: LPS-triggered TNFα inhibition. In a few lines: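 TNFα secretion was triggered with 200 ng/mL LPS for 4 h in human blood CD14+ monocytes after 1 h compound pretreatment at 37 °C, with 0.2% final DMSO. Supernatants were analysed by streptavidin-HRP/luminol ELISA, and percentage inhibition at each concentration was derived relative to control wells.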
(An ELISA detects its analyte on a solid surface through an enzyme-linked reagent.)

Experiment [2] concerns LPS triggered IL-10 secretion in monocytes. The experiment is described as follows: Monocytes assay: LPS-triggered IL-10 (ELISA). The experiment is classed as cell-based, human. The settings on record: LPS-triggered IL-10 induction, median maximal fold change vs LPS only; for maximal fold induction: Homo sapiens, Monocyte, read-out: IL-10 FCmax median. On the procedure: This assay evaluates illustrative compounds of the invention for their inhibition of LPS-induced TNFα and LPS triggered IL-10 secretion in monocytes.
PBMCs are isolated from human blood samples (buffycoats). The buffy coat is aseptically transferred into a 50 mL Falcon tube, and diluted 1/2 in PBS. Falcon tubes are filled with 20 mL Lymphoprep™, on top of which 25 mL of the buffy coat is carefully added, tubes are centrifuged for 35 min at 400 g in temperature controlled centrifuge, without brake, at 25° C. PBMCs are aspirated from the white interface layer between sample and Lymphoprep™. PBMCs are washed five times in PBS.
PBMCs are centrifuged at 300×g for 10 min and resuspended at a density of 1.0*10^7 cells/80 μL Miltenyi buffer (PBS, pH 7.4, 1% FBS, 2 mM EDTA).
Starting from this point of the protocol all steps are performed on ice. 20 μL of CD14+ micro-beads are added per 1.0*10^7 cells, the tube is mixed and incubated for 15 min in the fridge at 4° C. Cell suspension volume is adjusted to total volume of 100 mL using Miltenyi buffer, mixed gently and subsequently centrifuged for 10 min at 300×g. Supernatant is discarded and cell pellet is resuspended in 12 mL of Miltenyi buffer.
Four LS columns are placed in the MACS Separator (magnet) from Miltenyi Biotec, and are prewet by rinsing with 3 mL of MACS buffer per column. Three mL of cell suspension is added onto the column (max 1*10^8 of labelled cells/column), and columns are subsequently washed 3 times with 3 mL of Miltenyi buffer.
The columns are removed from the magnets, and 5 mL of Miltenyi buffer are added to the column to flush out the CD14+ fraction by pushing the plunger into the column. The flushed fractions are collected in a fresh 50 mL Falcon and volume is adjusted to 30 mL using Miltenyi buffer, cells are centrifuged for 10 min at 300×g. The obtained cell pellet is resuspended in 10 mL RPMI w/o FBS, and cell density is determined using a hematologic analyser (Sysmex XS-500i).
A compound dilution plate is made in 100% DMSO by 3-fold dilution of 10 mM stock solution. An intermediate dilution plate (10× final concentration) is made by diluting the compound dilution plate 50-fold in RPMI medium.
10 μL of the 10× final concentration compound is added to the cells and incubated for 1 h at 37° C. before addition of trigger. No trigger conditions/trigger conditions are spiked with equal final DMSO concentrations of 0.2% DMSO. 10 μL of 10×LPS (final conc. 200 ng/mL) solution are added to all wells except for the ‘no trigger wells’ where 10 μL medium is added. Supernatant is collected after 4 h of LPS triggering.
A Lumitrac 600 Greiner 384-well plate is coated with 40 μL of capture antibody (final concentration of 1 μg/mL in 1×PBS) and stored overnight at 4° C. The next day the plate is washed three times with PBST (PBS+0.05% Tween20) and once with PBS followed by the addition of 100 μL of blocking buffer (1% BSA-5% Sucrose) and plates are sealed and incubated for at least 4 h at RT. After washing the plate once with PBST and once with PBS, 40 μL of standard or sample are added (IL-10 standard curve is prepared using a 1/2 serial dilution starting from 2000 pg/mL; dilutions are made in dilution buffer (PBS+1% BSA)). […] Plates are washed twice with PBST, and once with PBS, whereafter 35 μL of Strep-HRP conjugate (0.5 μg/mL final concentration diluted in dilution buffer) is added. Plates are incubated in the dark, at RT for at least 45 min but no longer than 1 h. Plates are washed twice with PBST, and once with PBS. Thereafter, 50 μL of luminol substrate is added to each well (prepared according to manufacturer's instructions), and incubated for 5 min at RT protected from light.
To quantify these increases, fold changes (FC) compared to ‘LPS only’ are calculated for each concentration tested and the maximal FC is calculated (IL-10 FCmax): […]

[3] abbreviates: ADP-Glo, AMARA 45 μM, 5 μM ATP, 120 min, average IC50.

Molecules are shown by their SMILES. pEC50, pIC50: −log10 of the molar value. Like-named read-outs stand apart in the source and are kept apart here.

T1 sequence (Q9H0K1 whole entry): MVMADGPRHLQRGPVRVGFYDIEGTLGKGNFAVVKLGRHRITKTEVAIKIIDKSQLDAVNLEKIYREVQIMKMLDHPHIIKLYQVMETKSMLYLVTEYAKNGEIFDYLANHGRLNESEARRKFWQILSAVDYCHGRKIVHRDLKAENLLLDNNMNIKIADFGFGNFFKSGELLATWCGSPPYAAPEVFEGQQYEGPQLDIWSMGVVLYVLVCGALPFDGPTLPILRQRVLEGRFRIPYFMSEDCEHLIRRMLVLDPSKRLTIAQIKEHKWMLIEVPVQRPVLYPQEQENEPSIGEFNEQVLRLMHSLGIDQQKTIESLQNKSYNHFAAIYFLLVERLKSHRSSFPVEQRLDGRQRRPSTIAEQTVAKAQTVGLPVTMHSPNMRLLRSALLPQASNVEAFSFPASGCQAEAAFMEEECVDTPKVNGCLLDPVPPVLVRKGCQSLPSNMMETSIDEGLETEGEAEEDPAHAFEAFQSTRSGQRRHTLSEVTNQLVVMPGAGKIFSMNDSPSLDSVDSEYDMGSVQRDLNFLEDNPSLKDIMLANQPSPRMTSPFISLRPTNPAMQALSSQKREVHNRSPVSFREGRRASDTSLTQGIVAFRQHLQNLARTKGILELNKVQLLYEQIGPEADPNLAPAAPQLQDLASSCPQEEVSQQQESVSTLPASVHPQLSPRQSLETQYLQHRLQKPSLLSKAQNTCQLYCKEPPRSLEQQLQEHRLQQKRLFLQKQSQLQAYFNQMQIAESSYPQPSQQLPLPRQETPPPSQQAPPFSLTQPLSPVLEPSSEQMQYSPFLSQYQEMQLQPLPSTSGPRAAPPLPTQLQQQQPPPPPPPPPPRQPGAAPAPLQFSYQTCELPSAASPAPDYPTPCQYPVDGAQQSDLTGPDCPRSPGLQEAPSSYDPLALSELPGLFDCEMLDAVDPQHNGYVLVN
T2 sequence (Q9Y2K2 59-365 limits assumed): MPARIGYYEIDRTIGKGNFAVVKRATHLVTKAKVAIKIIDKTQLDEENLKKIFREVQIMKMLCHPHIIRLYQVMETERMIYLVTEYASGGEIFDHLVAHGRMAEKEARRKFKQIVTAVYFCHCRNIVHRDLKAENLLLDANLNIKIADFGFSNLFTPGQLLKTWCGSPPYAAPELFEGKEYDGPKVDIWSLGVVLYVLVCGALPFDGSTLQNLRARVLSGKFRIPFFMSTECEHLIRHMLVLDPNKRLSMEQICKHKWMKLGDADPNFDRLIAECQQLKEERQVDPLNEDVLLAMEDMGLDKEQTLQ

As usually defined, the pIC50 is the negative decadic logarithm of the IC50, by convention in mol/L. A low value points to a high IC50. In general, pEC50 refers to the EC50 on a negative log10 scale, so that one unit is a factor of ten. A lower pEC50 goes with a large EC50. Turning to `COc1cc(-c2cnc3cc([C@@](C)(C#N)CO)ccn23)cc(OC(F)F)c1C(=O)NC1CC1` (single isomer, unassigned) [Cpd 189, 4-[7-(1-cyano-2-hydroxy-1-methyl-ethyl)imidazo[1,2-a]pyridin-3-yl]-N-cyclopropyl-2-(difluoromethoxy)-6-methoxy-benzamide], the pIC50 on SIK2 was below 6.30; on SIK3 it was 7.00 to 8.00. This compound gave a pEC50 in experiment [1] of 6.00 to 7.00. The maximal fold induction in experiment [2] is below 1.5.

Regarding `COc1cc(-c2cnc3cc([C@@](C)(C#N)CO)ccn23)cc(OC(F)F)c1C(=O)NC1CC1` (single isomer, unassigned) [Cpd 190, 4-[7-(1-cyano-2-hydroxy-1-methyl-ethyl)imidazo[1,2-a]pyridin-3-yl]-N-cyclopropyl-2-(difluoromethoxy)-6-methoxy-benzamide], the pIC50 against SIK2 (setting [3]) is below 6.30; at SIK3 (setting [3]) it was 7.00 to 8.00. The compound also showed a pEC50 in experiment [1] of 5.30 to 6.00. The “IL-10 FCmax median” value in experiment [2] is “+ (+ ≤1.5)”.

In turn, `COc1cc(-c2cnn3cc(C(C)(C)C#N)ccc23)cc(OC(F)F)c1C(=O)N[C@@H]1C[C@H]1F` (single isomer, unassigned) [Cpd 257, 4-[6-(1-cyano-1-methyl-ethyl)pyrazolo[1,5-a]pyridin-3-yl]-2-(difluoromethoxy)-N-(2-fluorocyclopropyl)-6-methoxy-benzamide] showed a pEC50 in experiment [1] (Homo sapiens, Monocyte) of 6.00 to 7.00. In experiment [2], the maximal fold induction was 1.5 to 4.5.

In experiment [1], `COc1cc(-c2cnn3cc(C(C)(C)C#N)ccc23)cc(OC(F)F)c1C(=O)N[C@@H]1C[C@H]1F` (single isomer, unassigned) [Cpd 258, 4-[6-(1-cyano-1-methyl-ethyl)pyrazolo[1,5-a]pyridin-3-yl]-2-(difluoromethoxy)-N-(2-fluorocyclopropyl)-6-methoxy-benzamide] showed a pEC50 of 6.00 to 7.00. Besides, the “IL-10 FCmax median” value in experiment [2] is reported as “+ (+ ≤1.5)”.

On to `COc1cc(-c2cnc3cc(C(C)(C)C#N)ccn23)cc(OC(F)F)c1C(=O)NC1CC1` [Cpd 19, 4-[7-(1-cyano-1-methyl-ethyl)imidazo[1,2-a]pyridin-3-yl]-N-cyclopropyl-2-(difluoromethoxy)-6-methoxy-benzamide], for which the pIC50 was below 6.30 against SIK2 and 8.00 to 11.00 against SIK3. The same compound gave a pEC50 in experiment [1] (Homo sapiens, Monocyte) of 6.00 to 7.00. In experiment [2], the maximal fold induction is below 1.5.

On to `CCC(C)(C#N)c1ccn2c(-c3cc(OC)c(C(=O)NC4CC4)c(OC(F)F)c3)cnc2c1` (stereo not drawn) [Cpd 27, 4-[7-(1-cyano-1-methyl-propyl)imidazo[1,2-a]pyridin-3-yl]-N-cyclopropyl-2-(difluoromethoxy)-6-methoxy-benzamide], for which the pIC50 at SIK2 was below 6.30; against SIK3 it was 7.00 to 8.00. Also, in experiment [1] (Homo sapiens, Monocyte), the negative logarithm of the EC50 (pEC50) was 6.00 to 7.00. The maximal fold induction in experiment [2] was below 1.5.

Turning to `COc1cc(-c2cnc3cc(C(C)(C)O)ccn23)cc(OC(F)F)c1C(=O)NC1CC1` [Cpd 35, N-cyclopropyl-2-(difluoromethoxy)-4-[7-(1-hydroxy-1-methyl-ethyl)imidazo[1,2-a]pyridin-3-yl]-6-methoxy-benzamide], the figures for the pIC50 against SIK2 and at SIK3 were below 6.30 and 7.00 to 8.00, respectively. Also, the pEC50 in experiment [1] (Homo sapiens, Monocyte) is 6.00 to 7.00. Besides, in experiment [2], the maximal fold induction is 1.5 to 4.5.

As to `COc1cc(-c2cnc3cc(C(C)(C)C#N)ccn23)cc(OC(F)F)c1C(=O)NCC1CC1` [Cpd 39, 4-[7-(1-cyano-1-methyl-ethyl)imidazo[1,2-a]pyridin-3-yl]-N-(cyclopropylmethyl)-2-(difluoromethoxy)-6-methoxy-benzamide], the pIC50 is below 6.30 against SIK2 and 8.00 to 11.00 on SIK3. This compound showed a pEC50 in experiment [1] (Homo sapiens, Monocyte) of 6.00 to 7.00. Further, the maximal fold induction in experiment [2] lay within 1.5 to 4.5.

In the case of `COc1cc(-c2cnc3cc(C(C)(C)C#N)ccn23)cc(OC(F)F)c1C(=O)N1CC(C#N)C1` [Cpd 77, 1-[4-[7-(1-cyano-1-methyl-ethyl)imidazo[1,2-a]pyridin-3-yl]-2-(difluoromethoxy)-6-methoxy-benzoyl]azetidine-3-carbonitrile], the pIC50 is below 6.30 against SIK2 and 8.00 to 11.00 at SIK3. The compound also showed a negative logarithm of the EC50 (pEC50) in experiment [1] (Homo sapiens, Monocyte) of 6.00 to 7.00. Further, the maximal fold induction in experiment [2] lay in the range of 1.5 to 4.5.

`COc1cc(-c2cnc3cc(C(C)(C)C#N)ccn23)cc(OC(F)F)c1C(=O)N[C@@H]1C[C@@H]1F` [Cpd 79, 4-[7-(1-cyano-1-methyl-ethyl)imidazo[1,2-a]pyridin-3-yl]-2-(difluoromethoxy)-N-[(1R,2S)-2-fluorocyclopropyl]-6-methoxy-benzamide]: the negative logarithm of the IC50 (pIC50) against SIK2 was 6.30 to 7.00; at SIK3, 8.00 to 11.00. The compound also showed a pEC50 in experiment [1] (Homo sapiens, Monocyte) of 7.00 to 10.00. Further, the maximal fold induction in experiment [2] lay within 1.5 to 4.5.

On to `COc1cc(-c2cnc3cc(C4(C#N)CCOCC4)ccn23)cc(OC)c1C(=O)NCC(F)(F)F` [Cpd 107, 4-[7-(4-cyanotetrahydropyran-4-yl)imidazo[1,2-a]pyridin-3-yl]-2,6-dimethoxy-N-(2,2,2-trifluoroethyl)benzamide], for which the figures for the pIC50 against SIK2 and on SIK3 were below 6.30 and 8.00 to 11.00, respectively. The compound also had a pEC50 in experiment [1] (Homo sapiens, Monocyte) of 6.00 to 7.00. Further, the maximal fold induction in experiment [2] fell in the range of 1.5 to 4.5.

With `COc1cc(-c2cnc3cc(C4(C#N)CCOCC4)ccn23)cc(OC(F)F)c1C(=O)NC1CC1` [Cpd 116, 4-[7-(4-cyanotetrahydropyran-4-yl)imidazo[1,2-a]pyridin-3-yl]-N-cyclopropyl-2-(difluoromethoxy)-6-methoxy-benzamide], the negative logarithm of the IC50 (pIC50) is below 6.30 at SIK2 and 8.00 to 11.00 against SIK3. This compound gave a pEC50 in experiment [1] (Homo sapiens, Monocyte) of 6.00 to 7.00. The maximal fold induction in experiment [2] is 1.5 to 4.5.

Take `COc1cc(-c2cnn3cc(C(C)(C)C#N)ccc23)cc(OC(F)F)c1C(=O)N[C@@H]1C[C@@H]1F` [Cpd 219, 4-[6-(1-cyano-1-methyl-ethyl)pyrazolo[1,5-a]pyridin-3-yl]-2-(difluoromethoxy)-N-[(1R,2S)-2-fluorocyclopropyl]-6-methoxy-benzamide]: the pEC50 in experiment [1] (Homo sapiens, Monocyte) is 7.00 to 10.00. In addition, the maximal fold induction in experiment [2] is below 1.5.

For `COc1cc(-c2cnn3cc(C(C)(C)COS(C)(=O)=O)ccc23)cc(OC(F)F)c1C(=O)N[C@@H]1C[C@@H]1F` [Cpd 267, [2-[3-[3-(difluoromethoxy)-4-[[(1R,2S)-2-fluorocyclopropyl]carbamoyl]-5-methoxy-phenyl]pyrazolo[1,5-a]pyridin-6-yl]-2-methyl-propyl]methanesulfonate], the pIC50 against SIK2 is below 6.30; against SIK3, 8.00 to 11.00. In addition, the negative-log EC50 (pEC50) in experiment [1] (Homo sapiens, Monocyte) is 7.00 to 10.00.

Consider `[2H]C([2H])([2H])C(C#N)(c1ccc2c(-c3cc(OC)c(C(=O)N[C@@H]4C[C@@H]4F)c(OC(F)F)c3)cnn2c1)C([2H])([2H])[2H]` [Cpd 275, 4-[6-[1-cyano-2,2,2-trideuterio-1-(trideuteriomethyl)ethyl]pyrazolo[1,5-a]pyridin-3-yl]-2-(difluoromethoxy)-N-[(1R,2S)-2-fluorocyclopropyl]-6-methoxy-benzamide], for which the negative-log EC50 (pEC50) in experiment [1] (Homo sapiens, Monocyte) is 6.00 to 7.00. Further, the maximal fold induction in experiment [2] was 1.5 to 4.5.
